Measurements published in ChEMBL document CHEMBL1201862, “PubChem BioAssay data set” (2004).
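Briefly, cells in 96-well plates were exposed to five compound concentrations for 48 h, and endpoints were estimated by linear interpolation. GI50 = concentration required for 50% inhibition of growth.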 Calls of active or inactive are those of the source. No stated cut-off is given here; in the data, active = GI50 up to about 1.1 µM and inactive = higher.

Assays:
Test in all cases: NCI tumour cell line growth inhibition, 48 h
DU-145 = test system: DU-145
786-0 = test system: 786-0
COLO 205 = test system: COLO 205
Malme-3M = test system: Malme-3M
SNB-19 = test system: SNB-19
SR = test system: SR
T47D = test system: T47D
LOX IMVI = test system: LOX IMVI
NCI-H460 = test system: NCI-H460
MDA-MB-435 = test system: MDA-MB-435
MOLT-4 = test system: MOLT-4
CAKI-1 = test system: CAKI-1
BT-549 = test system: BT-549
RXF 393 = test system: RXF 393
NCI-H522 = test system: NCI-H522
OVCAR-8 = test system: OVCAR-8
PC-3 = test system: PC-3
SK-OV-3 = test system: SK-OV-3
HCT-116 = test system: HCT-116
CCRF-CEM = test system: CCRF-CEM
MDA-MB-231 = test system: MDA-MB-231
HL-60 = test system: HL-60
IGROV-1 = test system: IGROV-1
SN12C = test system: SN12C
UACC-62 = test system: UACC-62
SW-620 = test system: SW-620
EKVX = test system: EKVX
KM12 = test system: KM12
U-251 = test system: U-251
UACC-257 = test system: UACC-257
HOP-62 = test system: HOP-62
NCI-H226 = test system: NCI-H226
OVCAR-5 = test system: OVCAR-5
NCI-H23 = test system: NCI-H23
HCT-15 = test system: HCT-15
M14 = test system: M14
OVCAR-4 = test system: OVCAR-4
HT-29 = test system: HT-29
SK-MEL-5 = test system: SK-MEL-5
SF-295 = test system: SF-295
SF-539 = test system: SF-539
SF-268 = test system: SF-268
MDA-N = test system: MDA-N
MCF7 = test system: MCF7
K562 = test system: K562
NCI/ADR-RES = test system: NCI/ADR-RES
HCC 2998 = test system: HCC 2998
SNB-75 = test system: SNB-75
A549 = test system: A549
Hs-578T = test system: Hs-578T
ACHN = test system: ACHN
SK-MEL-2 = test system: SK-MEL-2
TK-10 = test system: TK-10
RPMI-8226 = test system: RPMI-8226
OVCAR-3 = test system: OVCAR-3
SK-MEL-28 = test system: SK-MEL-28
A498 = test system: A498
HOP-92 = test system: HOP-92
UO-31 = test system: UO-31

For `Cc1c2ccccc2c(C)n2c1nc1cc(Cl)c(Cl)cc12`, the GI50 (DU-145) was > 10 µM (inactive), the GI50 (786-0) was 6.47 µM (inactive) and the GI50 (COLO 205) was > 10 µM (inactive). The GI50 (Malme-3M) was 0.166 µM (active), the GI50 (SNB-19) was > 10 µM (inactive) and the GI50 (SR) was > 10 µM (inactive). The GI50 (T47D) was > 10 µM (inactive), the GI50 (LOX IMVI) was 2.78 µM (inactive) and the GI50 (NCI-H460) was 4.04 µM (inactive). For the same compound, the GI50 (MDA-MB-435) was > 10 µM (inactive), the GI50 (MOLT-4) was 2.93 µM (inactive) and the GI50 (CAKI-1) was > 10 µM (inactive). The GI50 (BT-549) was > 10 µM (inactive), the GI50 (RXF 393) was > 10 µM (inactive) and the GI50 (NCI-H522) was 5.81 µM (inactive). For the same compound, the GI50 (OVCAR-8) was > 10 µM (inactive), the GI50 (PC-3) was > 10 µM (inactive) and the GI50 (SK-OV-3) was > 10 µM (inactive). The GI50 (HCT-116) was > 10 µM (inactive), the GI50 (CCRF-CEM) was > 10 µM (inactive) and the GI50 (MDA-MB-231) was > 10 µM (inactive). The GI50 (HL-60) was 3.88 µM (inactive), the GI50 (IGROV-1) was > 10 µM (inactive) and the GI50 (SN12C) was > 10 µM (inactive). The GI50 (UACC-62) was > 10 µM (inactive), the GI50 (SW-620) was > 10 µM (inactive) and the GI50 (EKVX) was > 10 µM (inactive). The GI50 (KM12) was > 10 µM (inactive), the GI50 (U-251) was > 10 µM (inactive) and the GI50 (UACC-257) was > 10 µM (inactive). For the same compound, the GI50 (HOP-62) was > 10 µM (inactive), the GI50 (NCI-H226) was 0.0296 µM (active) and the GI50 (OVCAR-5) was > 10 µM (inactive). For the same compound, the GI50 (NCI-H23) was > 10 µM (inactive), the GI50 (HCT-15) was over 10 µM and the GI50 (M14) was > 10 µM (inactive). The GI50 (OVCAR-4) was > 10 µM (inactive), the GI50 (HT-29) was > 10 µM (inactive) and the GI50 (SK-MEL-5) was > 10 µM (inactive). The GI50 (SF-295) was 8.65 µM (inactive), the GI50 (SF-539) was > 10 µM (inactive) and the GI50 (SF-268) was > 10 µM (inactive). For the same compound, the GI50 (MDA-N) was > 10 µM (inactive), the GI50 (MCF7) was 1.59 µM (inactive) and the GI50 (K562) was > 10 µM (inactive). The GI50 (NCI/ADR-RES) was 0.172 µM (active), the GI50 (HCC 2998) was > 10 µM (inactive) and the GI50 (SNB-75) was 3.8 µM (inactive). For the same compound, the GI50 (A549) was > 10 µM (inactive), the GI50 (Hs-578T) was > 10 µM (inactive) and the GI50 (ACHN) was > 10 µM (inactive). The GI50 (SK-MEL-2) was > 10 µM (inactive), the GI50 (TK-10) was > 10 µM (inactive) and the GI50 (RPMI-8226) was 8.83 µM (inactive). The GI50 (OVCAR-3) was 0.163 µM (active) and the GI50 (SK-MEL-28) was > 10 µM (inactive).
In the case of `O=C(O)C1CCc2ccc3ccccc3c2C1c1cccc2ccccc12` (stereo not drawn), the GI50 (DU-145) is reported as 25.8 µM (inactive), the GI50 (786-0) is reported as 18.2 µM (inactive) and the GI50 (COLO 205) is reported as 25.9 µM (inactive). The GI50 (Malme-3M) was 22.4 µM (inactive), the GI50 (SNB-19) was 19.3 µM (inactive) and the GI50 (SR) was 20.8 µM (inactive). For the same compound, the GI50 (T47D) was 43.9 µM (inactive), the GI50 (LOX IMVI) was 19.5 µM (inactive) and the GI50 (A498) was 30.8 µM (inactive). For the same compound, the GI50 (NCI-H460) was 20 µM (inactive), the GI50 (MDA-MB-435) was 48.6 µM (inactive) and the GI50 (MOLT-4) was 19.8 µM (inactive). For the same compound, the GI50 (CAKI-1) was 68.2 µM (inactive), the GI50 (BT-549) was 19.1 µM (inactive) and the GI50 (RXF 393) was 19 µM (inactive). For the same compound, the GI50 (NCI-H522) was 21.4 µM (inactive), the GI50 (OVCAR-8) was 24.2 µM (inactive) and the GI50 (PC-3) was 19.3 µM (inactive). For the same compound, the GI50 (SK-OV-3) was 36.1 µM (inactive), the GI50 (HCT-116) was 15.6 µM (inactive) and the GI50 (CCRF-CEM) was 19.1 µM (inactive). For the same compound, the GI50 (MDA-MB-231) was 30.2 µM (inactive), the GI50 (HOP-92) was 19.1 µM (inactive) and the GI50 (HL-60) was 26.6 µM (inactive). For the same compound, the GI50 (IGROV-1) was 22.9 µM (inactive), the GI50 (SN12C) was 24.2 µM (inactive) and the GI50 (UACC-62) was 15.1 µM (inactive). For the same compound, the GI50 (SW-620) was 28.2 µM (inactive), the GI50 (EKVX) was 30.5 µM (inactive) and the GI50 (KM12) was 21.9 µM (inactive). For the same compound, the GI50 (U-251) was 17.9 µM (inactive), the GI50 (UACC-257) was 25.9 µM (inactive) and the GI50 (HOP-62) was 19 µM (inactive). The GI50 (NCI-H226) was 24.7 µM (inactive), the GI50 (OVCAR-5) was 18.4 µM (inactive) and the GI50 (HCT-15) was 19.4 µM. For the same compound, the GI50 (UO-31) was 25.8 µM (inactive), the GI50 (M14) was 17.6 µM (inactive) and the GI50 (OVCAR-4) was 29 µM (inactive). For the same compound, the GI50 (HT-29) was 17.4 µM (inactive), the GI50 (SK-MEL-5) was 16.5 µM (inactive) and the GI50 (SF-295) was 23.9 µM (inactive). For the same compound, the GI50 (SF-539) was 23.8 µM (inactive), the GI50 (SF-268) was 27.9 µM (inactive) and the GI50 (MDA-N) was 22.1 µM (inactive). For the same compound, the GI50 (MCF7) was 34.7 µM (inactive), the GI50 (K562) was 32.3 µM (inactive) and the GI50 (NCI/ADR-RES) was 23.3 µM (inactive). For the same compound, the GI50 (SNB-75) was 22.9 µM (inactive), the GI50 (A549) was 16.5 µM (inactive) and the GI50 (Hs-578T) was 33.2 µM (inactive). For the same compound, the GI50 (ACHN) was 29.6 µM (inactive), the GI50 (SK-MEL-2) was 18.2 µM (inactive) and the GI50 (TK-10) was 44.5 µM (inactive). For the same compound, the GI50 (RPMI-8226) was 27.9 µM (inactive), the GI50 (OVCAR-3) was 16.3 µM (inactive) and the GI50 (SK-MEL-28) was 18.7 µM (inactive).
